Calls of active or inactive are those of the source.
Columns and labels:
[1] = molecular target: T1, Neuronal acetylcholine receptor; alpha4/beta2 (Homo sapiens) (UniProt P17787+P43681); test: (§1) Positive allosteric modulation at human alpha4beta2 nAChR expressed in HEK293 cells assessed as potentiation of 5-[(2R)-azetidin-2-ylmethoxy]-2-chloropyridine-induced calcium flux preincubated for 5 mins followed by agonist addition measured for 3 to 5 mins by FLIPR assay relative to control; type: cell-based; set-up: concentration or dose not given beside the values
[2] = molecular target: T1, Neuronal acetylcholine receptor; alpha4/beta2 (Homo sapiens); test: Positive allosteric modulation at human alpha4beta2 nAChR expressed in HEK293 cells assessed as potentiation of (3R)-1-pyridin-3-ylpyrrolidin-3-amine-induced calcium flux preincubated for 5 mins followed by agonist addition measured for 3 to 5 mins by FLIPR assay relative to control; type: cell-based; set-up: concentration or dose not given beside the values
Rattus norvegicus [3] = test: Antinociceptive activity in Sprague-Dawley rat assessed as reversal of tight ligation of L5-L6 spinal nerves-induced mechanical allodynia by measuring paw withdrawal threshold at 500 umol/kg, ip measured after 30 mins; type: functional
[4] = molecular target: T1, Neuronal acetylcholine receptor; alpha4/beta2 (Homo sapiens); test: as §1, with “flux at 10 uM” for “flux”; type: cell-based
[5] = molecular target: T1, Neuronal acetylcholine receptor; alpha4/beta2 (Homo sapiens); test: Positive allosteric modulation at human alpha4beta2 nAChR expressed in HEK293 cells assessed as potentiation of (3R)-1-pyridin-3-ylpyrrolidin-3-amine-induced calcium flux at 10 uM preincubated for 5 mins followed by agonist addition measured for 3 to 5 mins by FLIPR assay relative to control; type: cell-based
[6] = molecular target: T1, Neuronal acetylcholine receptor; alpha4/beta2 (Homo sapiens); test: Positive allosteric modulation at human alpha4beta2 nAChR expressed in HEK293 cells assessed as potentiation of (1S,5S)-3-(3,6-diaza-bicyclo[3.2.0]hept-3-yl)-quinoline-induced calcium flux preincubated for 5 mins followed by agonist addition measured for 3 to 5 mins by FLIPR assay; type: cell-based
[7] = molecular target: T1, Neuronal acetylcholine receptor; alpha4/beta2 (Homo sapiens); test: Positive allosteric modulation at human alpha4beta2 nAChR expressed in HEK293 cells assessed as potentiation of 2-methyl-3-(2-(S)-pyrrolidinylmethoxy)pyridine-induced calcium flux preincubated for 5 mins followed by agonist addition measured for 3 to 5 mins by FLIPR assay; type: cell-based
Rattus norvegicus [8] = test: Potentiation of 5-[(2R)-Azetidin-2-yl methoxy]-2-chloropyridine-induced antinociceptive activity in Sprague-Dawley rat assessed as reversal of tight ligation of L5-L6 spinal nerves-mediated mechanical allodynia by measuring paw withdrawal threshold at 10 mg/kg, ip administered prior to agonist treatment measured after 30 mins (reference value: 24%); type: functional
Rattus norvegicus [9] = test: (§2) Potentiation of 5-[(2R)-Azetidin-2-yl methoxy]-2-chloropyridine-induced antinociceptive activity in ip dosed Sprague-Dawley rat assessed as reversal of tight ligation of L5-L6 spinal nerves-mediated mechanical allodynia by measuring paw withdrawal threshold administered prior to agonist treatment measured after 30 mins; type: functional
[10] = molecular target: T1, Neuronal acetylcholine receptor; alpha4/beta2 (Homo sapiens); test: Positive allosteric modulation at human alpha4beta2 nAChR expressed in HEK293 cells assessed as potentiation of varenicline-induced calcium flux preincubated for 5 mins followed by agonist addition measured for 3 to 5 mins by FLIPR assay; type: cell-based
[11] = molecular target: T1, Neuronal acetylcholine receptor; alpha4/beta2 (Homo sapiens); test: Positive allosteric modulation at human alpha4beta2 nAChR expressed in HEK293 cells assessed as potentiation of ispronicline-induced calcium flux preincubated for 5 mins followed by agonist addition measured for 3 to 5 mins by FLIPR assay; type: cell-based
Rattus norvegicus [12] = test: as §2, with “in” for “in ip dosed”, “measuring increase in” for “measuring”, “threshold at 3.5 umol/kg, ip” for “threshold”; type: functional, organism-based
[13] = Toxicity in ferret assessed as emesis at 3.5 umol/kg after 30 mins measured for 90 mins; set-up: species or system Mustela putorius furo; settings: in vivo, 1.5 h
[14] = Toxicity in ferret assessed as emesis at 3.5 umol/kg administered 30 mins prior to agonist treatment measured for 90 mins in presence of 5-[(2R)-Azetidin-2-yl methoxy]-2-chloropyridine; set-up: species or system Mustela putorius furo; settings: in vivo, 1.5 h
Rattus norvegicus [15] = test: (§3) Potentiation of 3 umol/kg of (1S,5S)-3-(3,6-diaza-bicyclo[3.2.0]hept-3-yl)-quinoline-induced antinociceptive activity in Sprague-Dawley rat assessed as reversal of tight ligation of L5-L6 spinal nerves-mediated mechanical allodynia by measuring paw withdrawal threshold at 35 umol/kg, ip administered prior to agonist treatment measured after 30 mins; type: functional
Rattus norvegicus [16] = test: as §3, with “of 30” for “of 3”; type: functional

## CC(=O)c1cccc(-c2nc(-c3cccnc3)no2)c1
[1]
  Activity: 150 to 200%
[2]
  Activity: 150 to 200%

## Clc1cc(-c2noc(-c3cccnc3)n2)ccn1
[1]
  Activity: 120 to 150%
[2]
  Activity: 120 to 150%

## CS(=O)(=O)c1cccc(-c2nc(-c3cccnc3)no2)c1
[1]
  Activity: 120 to 150%
[2]
  Activity: 120 to 150%

## N#Cc1ccc(-c2nc(-c3cccnc3)no2)cc1
[1]
  Activity: 150 to 200%
[2]
  Activity: 150 to 200%

## NS(=O)(=O)c1cccc(-c2nc(-c3cccnc3)no2)c1
[1]
  Activity: 200 to 400%
[2]
  Activity: 200 to 400%

## N#Cc1cccc(-c2noc(-c3ccc(F)nc3)n2)c1
[1]
  Activity: 150 to 200%
[2]
  Activity: 150 to 200%

## Cc1ccc(-c2noc(-c3cccc(C#N)c3)n2)cn1
[1]
  Activity: 150 to 200%
[2]
  Activity: 150 to 200%

## NCC1(CC(=O)O)CCCCC1 [GABAPENTIN]
Rattus norvegicus [3]
  Activity: 58%

## c1cncc(-c2noc(-c3cccnc3)n2)c1
[1]
  Activity: 200 to 400%
[2]
  Activity: 200 to 400%

## N#Cc1cccc(-c2noc(-c3ccc(Cl)nc3)n2)c1
[1]
  Activity: 150 to 200%
[2]
  Activity: 150 to 200%

## O=[N+]([O-])c1cccc(-c2nc(-c3cccnc3)no2)c1
[1]
  Activity: 200 to 400%
[2]
  Activity: 200 to 400%

## c1cc(-c2noc(-c3cccnc3)n2)cc(-c2nnn[nH]2)c1
[1]
  Activity: 90 to 120%
[2]
  Activity: 90 to 120%

## Fc1ccc(-c2nc(-c3cccnc3)no2)cc1F
[1]
  Activity: 200 to 400%
[2]
  Activity: 200 to 400%

## N#Cc1cccc(-c2noc(-c3cccnc3)n2)c1
[1]
  Activity: 200 to 400%
[2]
  Activity: 200 to 400%

## Oc1cncc(-c2nc(-c3cccnc3)no2)c1
[1]
  Activity: 90 to 120%
[2]
  Activity: 90 to 120%

## O=c1ccc(-c2noc(-c3cccnc3)n2)c[nH]1
[1]
  Activity: 120 to 150%
[2]
  Activity: 120 to 150%

## N#Cc1cccc(-c2nc(-c3cccnc3)no2)c1
[4]
  Activity: 200 to 400%
  fold change (FC): 10 to 100
[5]
  Activity: 200 to 400%
  fold change (FC): 10 to 100
[6]
  Activity: Active
[7]
  Activity: Active
Rattus norvegicus [8]
  Activity: 76%
Rattus norvegicus [9]
  Activity: Dose-dependent effect
Rattus norvegicus [9]; record 2
  Activity: 33 - 63%
[10]
  Activity: Active
[11]
  Activity: Active
Rattus norvegicus [12]
  Activity: Active
[13]
  Activity: Non-Toxic
[14]
  Activity: Non-Toxic
Rattus norvegicus [15]
  Activity: 41%
Rattus norvegicus [16]
  Activity: 56%

## Fc1cccc(-c2nc(-c3cccnc3)no2)c1F
[1]
  Activity: 200 to 400%
[2]
  Activity: 200 to 400%

## Brc1cncc(-c2nc(-c3cccnc3)no2)c1
[1]
  Activity: 120 to 150%
[2]
  Activity: 120 to 150%

From ChEMBL document CHEMBL3880409, “Pharmaceutical compositions and their methods of use” (2008)
